# Measurements reported in ChEMBL document CHEMBL5579818, “Identification of 3-(9H-carbazol-9-yl)-2-(1,3-dioxoisoindolin-2-yl)propanoic acids as promising DNMT1 inhibitors” (Eur J Med Chem, 2024).
# The source made the active and inactive calls. The rule behind the calls is not given here.
# Columns and labels:
# [1] = target: T1, DNA (cytosine-5)-methyltransferase 1 (Homo sapiens, UniProt P26358); test: Inhibition of DNMT1 (unknown origin) at 250 uM using semi-methylated DNA substrate preincubated for 15 mins followed by substrate and [3H-SAM] addition and measured after 60 mins by microbeta scintillation counting assay relative to control; conditions: time 75.0 min
# T1 sequence (P26358 whole entry): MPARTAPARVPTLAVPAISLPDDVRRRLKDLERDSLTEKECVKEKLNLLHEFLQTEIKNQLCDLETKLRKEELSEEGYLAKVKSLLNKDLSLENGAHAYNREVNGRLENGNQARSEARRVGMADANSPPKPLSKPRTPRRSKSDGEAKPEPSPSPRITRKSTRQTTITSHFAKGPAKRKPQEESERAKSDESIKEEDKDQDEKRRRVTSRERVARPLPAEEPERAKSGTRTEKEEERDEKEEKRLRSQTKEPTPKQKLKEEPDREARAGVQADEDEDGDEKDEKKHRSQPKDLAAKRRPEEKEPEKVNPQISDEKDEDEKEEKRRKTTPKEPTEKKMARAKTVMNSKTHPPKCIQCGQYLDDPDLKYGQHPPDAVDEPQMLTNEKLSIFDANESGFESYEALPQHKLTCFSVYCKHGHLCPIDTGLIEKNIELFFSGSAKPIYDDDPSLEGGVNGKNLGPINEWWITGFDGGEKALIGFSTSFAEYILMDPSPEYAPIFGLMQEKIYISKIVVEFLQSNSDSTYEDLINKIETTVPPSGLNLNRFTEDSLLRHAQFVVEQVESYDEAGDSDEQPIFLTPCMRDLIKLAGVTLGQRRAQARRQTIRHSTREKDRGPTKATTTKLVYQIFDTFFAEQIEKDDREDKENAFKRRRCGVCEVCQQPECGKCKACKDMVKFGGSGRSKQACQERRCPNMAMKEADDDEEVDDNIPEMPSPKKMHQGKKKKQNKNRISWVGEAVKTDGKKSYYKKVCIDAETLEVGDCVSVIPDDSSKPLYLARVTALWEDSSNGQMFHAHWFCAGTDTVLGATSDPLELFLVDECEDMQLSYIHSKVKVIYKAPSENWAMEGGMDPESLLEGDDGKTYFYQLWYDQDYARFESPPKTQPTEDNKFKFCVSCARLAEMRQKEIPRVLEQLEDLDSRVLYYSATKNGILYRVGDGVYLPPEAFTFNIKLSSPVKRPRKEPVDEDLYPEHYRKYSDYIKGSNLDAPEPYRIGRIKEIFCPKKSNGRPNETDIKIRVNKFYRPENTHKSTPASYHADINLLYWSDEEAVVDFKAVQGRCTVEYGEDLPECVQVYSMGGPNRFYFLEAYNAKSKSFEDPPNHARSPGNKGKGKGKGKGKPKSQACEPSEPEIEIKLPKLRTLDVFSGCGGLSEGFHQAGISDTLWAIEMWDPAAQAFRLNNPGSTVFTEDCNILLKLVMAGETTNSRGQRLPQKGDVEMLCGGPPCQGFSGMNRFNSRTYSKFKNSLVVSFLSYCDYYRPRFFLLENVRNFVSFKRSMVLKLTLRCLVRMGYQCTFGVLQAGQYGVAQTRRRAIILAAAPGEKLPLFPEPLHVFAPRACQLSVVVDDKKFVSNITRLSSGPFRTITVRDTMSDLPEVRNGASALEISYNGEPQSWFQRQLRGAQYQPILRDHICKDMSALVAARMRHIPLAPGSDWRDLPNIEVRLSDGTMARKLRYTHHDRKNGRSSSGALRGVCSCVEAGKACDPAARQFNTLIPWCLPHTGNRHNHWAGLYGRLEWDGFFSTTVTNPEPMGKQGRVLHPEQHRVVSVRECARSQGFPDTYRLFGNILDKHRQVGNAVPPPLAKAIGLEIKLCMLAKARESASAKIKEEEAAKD
# [2] = target: T1, DNA (cytosine-5)-methyltransferase 1; test: Binding affinity to human DNMT1 expressed in Escherichia coli assessed as response unit at 10 uM by SPR analysis
# [3] = target: T1, DNA (cytosine-5)-methyltransferase 1; test: Binding affinity to human DNMT1 expressed in Escherichia coli assessed as binding constant by SPR analysis
# [4] = target: T1, DNA (cytosine-5)-methyltransferase 1; test: Binding affinity to human DNMT1 expressed in Escherichia coli assessed as equilibrium dissociation constant by SPR analysis
# [5] = target: T1, DNA (cytosine-5)-methyltransferase 1; test: Binding affinity to human DNMT1 in presence of 10 uM SAM by SPR analysis
# [6] = tested on: A2780; test: Antiproliferative activity against human A2780 cells at 100 uM incubated for 48 hrs by MTT assay; format: functional
# [7] = tested on: K562; test: Antiproliferative activity against human K562 cells at 100 uM incubated for 48 hrs by MTT assay; format: functional
# [8] = tested on: SiHa; test: Antiproliferative activity against human SiHa cells at 100 uM incubated for 48 hrs by MTT assay; format: functional
# [9] = tested on: HeLa; test: Antiproliferative activity against human HeLa cells at 100 uM incubated for 48 hrs by MTT assay; format: functional
# [10] = target: T1, DNA (cytosine-5)-methyltransferase 1; test: Inhibition of DNMT1 (unknown origin) using semi-methylated DNA substrate preincubated for 15 mins followed by substrate and [3H-SAM] addition and measured after 60 mins by microbeta scintillation counting assay
# [11] = tested on: SiHa; test: Antiproliferative activity against human SiHa cells incubated for 48 hrs by MTT assay; format: functional, cell-based
# [12] = tested on: A2780; test: Antiproliferative activity against human A2780 cells incubated for 48 hrs by MTT assay; format: functional, cell-based; conditions: A2780, 48 h
# [13] = tested on: K562; test: Antiproliferative activity against human K562 cells incubated for 48 hrs by MTT assay; format: functional, cell-based; conditions: K562, 48 h
# [14] = tested on: HeLa; test: Antiproliferative activity against human HeLa cells incubated for 48 hrs by MTT assay; format: functional, cell-based
# [15] = target: T1, DNA (cytosine-5)-methyltransferase 1; test: Inhibition of human DNMT1 at 500 uM relative to control
# [16] = tested on: K562; test: Induction of cell cycle arrest in human K562 cells assessed as S phase cells at 10 uM incubated for 48 hrs by PI staining based flow cytometry assay (reference value: 24.10 to 26.83%); format: functional
# [17] = tested on: K562; test: Upregulation of TRAIL-R2/Dr5 expression in human K562 cells; format: functional, cell-based
# [18] = tested on: K562; test: Induction of cell cycle arrest in human K562 cells assessed as G0-G1 phase cells at 20 uM incubated for 48 hrs by PI staining based flow cytometry assay (reference value: 33.58 to 35.82%); format: functional
# [19] = tested on: K562; test: Induction of cell cycle arrest in human K562 cells assessed as S phase cells at 20 uM incubated for 48 hrs by PI staining based flow cytometry assay (reference value: 24.10 to 26.83%); format: functional
# [20] = tested on: K562; test: Induction of apoptosis in human K562 cells assessed as late apoptotic cells at 20 uM incubated for 48 hrs by Annexin-V/PI staining based flow cytometry assay (reference value: 3.73%); format: functional
# [21] = tested on: K562; test: Induction of apoptosis in human K562 cells assessed as necrotic cells at 40 uM incubated for 48 hrs by Annexin-V/PI staining based flow cytometry assay (reference value: 0.34%); format: functional
# [22] = tested on: K562; test: Induction of apoptosis in human K562 cells assessed as necrotic cells at 10 uM incubated for 48 hrs by Annexin-V/PI staining based flow cytometry assay (reference value: 0.34%); format: functional
# [23] = tested on: K562; test: Induction of apoptosis in human K562 cells assessed as viable cells at 20 uM incubated for 48 hrs by Annexin-V/PI staining based flow cytometry assay (reference value: 92.12%); format: functional; conditions: read-out: Activity
# [24] = tested on: K562; test: Induction of apoptosis in human K562 cells assessed as necrotic cells at 20 uM incubated for 48 hrs by Annexin-V/PI staining based flow cytometry assay (reference value: 0.34%); format: functional
# [25] = tested on: K562; test: Induction of cell cycle arrest in human K562 cells assessed as G2/M phase cells at 40 uM incubated for 48 hrs by PI staining based flow cytometry assay (reference value: 37.35 to 45.32%); format: functional
# [26] = tested on: K562; test: Induction of apoptosis in human K562 cells assessed as early apoptotic cells at 20 uM incubated for 48 hrs by Annexin-V/PI staining based flow cytometry assay (reference value: 3.18%); format: functional
# [27] = tested on: K562; test: Induction of cell cycle arrest in human K562 cells assessed as G2/M phase cells at 20 uM incubated for 48 hrs by PI staining based flow cytometry assay (reference value: 37.35 to 45.32%); format: functional
# [28] = tested on: K562; test: Induction of apoptosis in human K562 cells assessed as early apoptotic cells at 10 uM incubated for 48 hrs by Annexin-V/PI staining based flow cytometry assay (reference value: 3.18%); format: functional
# [29] = tested on: K562; test: Upregulation of CDKN1A/P21 expression in human K562 cells; format: functional, cell-based
# [30] = tested on: K562; test: Induction of apoptosis in human K562 cells assessed as late apoptotic cells at 10 uM incubated for 48 hrs by Annexin-V/PI staining based flow cytometry assay (reference value: 3.73%); format: functional
# [31] = tested on: K562; test: Induction of cell cycle arrest in human K562 cells assessed as G0-G1 phase cells at 10 uM incubated for 48 hrs by PI staining based flow cytometry assay (reference value: 33.58 to 35.82%); format: functional
# [32] = tested on: K562; test: Induction of apoptosis in human K562 cells assessed as early apoptotic cells at 40 uM incubated for 48 hrs by Annexin-V/PI staining based flow cytometry assay (reference value: 3.18%); format: functional
# [33] = tested on: K562; test: Upregulation of TNFR-1 expression in human K562 cells; format: functional, cell-based
# [34] = tested on: K562; test: Induction of cell cycle arrest in human K562 cells assessed as G0-G1 phase cells at 40 uM incubated for 48 hrs by PI staining based flow cytometry assay (reference value: 33.58 to 35.82%); format: functional
# [35] = tested on: K562; test: Induction of cell cycle arrest in human K562 cells assessed as S phase cells at 40 uM incubated for 48 hrs by PI staining based flow cytometry assay (reference value: 24.10 to 26.83%); format: functional
# [36] = tested on: K562; test: Induction of apoptosis in human K562 cells assessed as viable cells at 10 uM incubated for 48 hrs by Annexin-V/PI staining based flow cytometry assay (reference value: 92.12%); format: functional; conditions: read-out: Activity
# [37] = tested on: K562; test: Induction of apoptosis in human K562 cells assessed as viable cells at 40 uM incubated for 48 hrs by Annexin-V/PI staining based flow cytometry assay (reference value: 92.12%); format: functional; conditions: read-out: Activity
# [38] = tested on: K562; test: Induction of cell cycle arrest in human K562 cells assessed as G2/M phase cells at 10 uM incubated for 48 hrs by PI staining based flow cytometry assay (reference value: 37.35 to 45.32%); format: functional
# [39] = tested on: K562; test: Induction of apoptosis in human K562 cells assessed as late apoptotic cells at 40 uM incubated for 48 hrs by Annexin-V/PI staining based flow cytometry assay (reference value: 3.73%); format: functional
structure (smiles),measurement,setting,value
O=C(O)C(Cn1c2ccc(I)cc2c2cc(I)ccc21)N1C(=O)c2ccccc2C1=O (racemic) [listing 1 of 2 here],inhibition,[1],> 75%
same,Activity,[2],57.9 RU
same,Ka,[3],239000 M⁻¹ s⁻¹
O=C(O)C(Cn1c2ccc(Br)cc2c2cc(Br)ccc21)N1C(=O)c2ccccc2C1=O (racemic) [listing 1 of 2 here],Kd,[4],1.16 µM
same,Kd,[5],4.09 µM
O=C(O)C(Cn1c2ccccc2c2cc(Br)ccc21)N1C(=O)c2ccccc2C1=O (racemic),inhibition,[1],< 50%
same,Activity,[6],<5%
same,Activity,[7],<5%
same,Activity,[8],<5%
same,Activity,[9],<5%
O=C(O)C(Cn1c2ccccc2c2cc(OCC3CO3)ccc21)N1C(=O)c2ccccc2C1=O (racemic),inhibition,[1],< 50%
same,Activity,[6],<5%
same,Activity,[7],<5%
same,Activity,[8],<5%
same,Activity,[9],<5%
O=C(O)C(Cn1c2cc(Br)ccc2c2ccc(Br)cc21)N1C(=O)c2ccccc2C1=O (racemic),inhibition,[1],> 75%
same,Activity,[2],Active
O=C(O)C(Cn1c2ccc(Br)cc2c2cc(Br)ccc21)N1C(=O)c2ccccc2C1=O (racemic) [listing 2 of 2 here],inhibition,[1],> 75%
same,Activity,[2],Active
same,Ka,[3],34000 M⁻¹ s⁻¹
O=C(O)C(Cn1c2ccc(Br)cc2c2cc(Br)ccc21)N1C(=O)c2ccccc2C1=O (stereo in doubt; 7n-2),IC50,[10],38.2 µM
O=C(O)C(Cn1c2ccc(I)cc2c2cc(I)ccc21)N1C(=O)c2ccccc2C1=O (stereo in doubt; 7o-2),IC50,[10],43 µM
CC(C)(C)c1ccc2c(c1)c1cc(C(C)(C)C)ccc1n2CC(C(=O)O)N1C(=O)c2ccccc2C1=O (racemic),inhibition,[1],> 75%
same,Kd,[4],0.841 µM
same,Activity,[6],98%
same,Activity,[7],99%
same,Activity,[2],52.7 RU
same,IC50,[11],43.3 µM
same,IC50,[12],36.6 µM
same,Activity,[9],79%
same,IC50,[13],22.5 µM
same,IC50,[14],60.5 µM
O=C(O)[C@@H](Cn1c2ccc(Cl)cc2c2cc(Cl)cc(Cl)c21)N1C(=O)c2ccccc2C1=O,Kd,[4],0.127 µM
same,IC50,[11],83.2 µM
same,IC50,[12],68.6 µM
same,IC50,[13],44.4 µM
same,IC50,[14],89 µM
same,IC50,[10],0.777 µM
O=C(O)C(Cn1c2ccccc2c2ccccc21)N1C(=O)c2ccccc2C1=O (racemic),inhibition,[1],< 50%
same,Activity,[6],<5%
same,inhibition,[15],< 10%
same,Activity,[7],<5%
same,Activity,[2],25.1 RU
same,Activity,[8],<5%
same,Activity,[9],<5%
Cc1ccc2c(c1)c1cc(C)ccc1n2CC(C(=O)O)N1C(=O)c2ccccc2C1=O (racemic),inhibition,[1],> 75%
same,Activity,[2],Active
CC(C)(C)c1ccc2c(c1)c1cc(C(C)(C)C)ccc1n2C[C@H](C(=O)O)N1C(=O)c2ccccc2C1=O,Kd,[4],0.666 µM
same,IC50,[11],54.9 µM
same,IC50,[12],34.6 µM
same,IC50,[13],17 µM
same,IC50,[14],59.9 µM
same,IC50,[10],17.3 µM
O=C(O)C(Cn1c2ccc(Cl)cc2c2cc(Cl)cc(Cl)c21)N1C(=O)c2ccccc2C1=O (racemic),inhibition,[1],> 75%
same,Kd,[4],0.16 µM
same,Activity,[6],59%
same,Activity,[7],91%
same,Activity,[2],65.5 RU
same,IC50,[11],78 µM
same,IC50,[12],72.8 µM
same,Activity,[9],52%
same,IC50,[13],45.8 µM
same,IC50,[14],97.6 µM
O=C(O)C(Cn1c2ccc(I)cc2c2cc(I)ccc21)N1C(=O)c2ccccc2C1=O (racemic) [listing 2 of 2 here],Kd,[4],0.145 µM
O=C(O)C(Cn1c2ccc(Cl)cc2c2cc(Cl)ccc21)N1C(=O)c2ccccc2C1=O (racemic),inhibition,[1],> 75%
same,Activity,[2],Active
O=C(O)C(Cn1c2ccccc2c2cc(I)ccc21)N1C(=O)c2ccccc2C1=O (racemic),inhibition,[1],< 50%
same,Activity,[6],<5%
same,Activity,[7],<5%
same,Activity,[8],<5%
same,Activity,[9],<5%
CC(C)(C)c1ccc2c(c1)c1cc(C(C)(C)C)ccc1n2C[C@@H](C(=O)O)N1C(=O)c2ccccc2C1=O,Activity,[16],26.12%
same,Activity,[17],Active
same,Kd,[4],0.679 µM
same,Activity,[18],54.77%
same,Activity,[19],21.5%
same,Activity,[20],6.5%
same,Activity,[21],1.47%
same,Activity,[22],0.37%
same,viability at 20 µM,[23],90.2%
same,Activity,[24],0.56%
same,Activity,[25],16.56%
same,Activity,[26],2.78%
same,Activity,[27],23.67%
same,Activity,[28],1.39%
same,Activity,[29],Active
same,IC50,[11],25.6 µM
same,IC50,[12],32.9 µM
same,Activity,[30],2.07%
same,Activity,[31],34.61%
same,Activity,[32],1.36%
same,IC50,[13],15.8 µM
same,Activity,[33],Active
same,Activity,[34],61.14%
same,Activity,[35],22.3%
same,viability at 10 µM,[36],86.2%
same,IC50,[14],66.9 µM
same,IC50,[10],8.15 µM
same,viability at 40 µM,[37],3.07%
same,Activity,[38],38.67%
same,Activity,[39],94.09%
